Experimental data: publication PMC3833878, “In Silico Molecular Comparisons of C. elegans and Mammalian Pharmacology Identify Distinct Targets That Regulate Feeding” (PLoS Biology, 2013)

Key:
[1] = tested on: wild-type C. elegans; test: Pharyngeal pumping assay; type: in vivo; settings: for EC50: Caenorhabditis elegans, read-out: EC50 of the dose-dependent increase in the pharyngeal pumping rate
Description: (§1) Compounds at 1,000× stock concentrations (0.1–10 mM) in DMSO or an equal volume of DMSO were diluted in a suspension of E. coli OP-50 (100 µl of a 3× concentrated overnight culture in LB broth) and absorbed as a single drop onto 3.5 cm plates containing 2.5 ml of NGM agar forming a well-defined lawn of bacteria. For developmental exposures, 20–30 synchronized first larval stage C. elegans derived from alkaline hypochlorite treatment of gravid adults were applied to the preseeded plates and cultured until assay at mid-L4 stage (2 d, 20°C) or as day 1 gravid adults (3 d, 20°C). For naïve adult exposures, synchronized first larval stage animals were cultured on NGM-agar plates seeded with E. coli OP-50 for 3 d at 20°C, then transferred to assay plates, and pumping was assayed 1 to 16 h later. Comparisons between vehicle-treated and compound-treated animals were always performed between animals at the same developmental stage and same exposure time. Pharyngeal pumping was counted by live observation at 115–200× magnification using a stereo microscope and recorded at 10 s intervals using a manually controlled digital cell counter. Alternatively, C. elegans pumping was recorded for longer intervals (30–60 s) using bright-field time-lapse microscopy at 120× magnification with a 20 images per second acquisition rate. The resulting movies were analyzed manually at a playback rate of 10 images per second.
(§2) Significance was determined by one-way ANOVA applying a Dunnett's posttest when comparing multiple treatments to a single control and a Bonferroni posttest when comparing the more than two treatments against one another. For pairwise nonrepeated measured comparisons, a student's t test was used. To express data as a percentage of control, the pumping rates of compound-treated animals were divided by the mean pumping rate of the DMSO-treated wild-type animals measured in the same experiment, unless indicated otherwise. Error bars on the control samples indicate the variation around that mean, which is utilized in all statistical calculations.

[2] = target: Flt-3 receptor; set-up: method as in PMID 20153646; settings: cited from earlier work
[3] = tested on: C. elegans; set-up: method as in earlier work; settings: earlier phenotypic screen ref 11; cited from earlier work
[4] = tested on: tkr-1(RNAi) C. elegans; test: Pharyngeal pumping assay, compound on RNAi-treated animals; type: in vivo
Description: Synchronized first larval stage C. elegans were cultured for 3 d at 20°C on a lawn of HT115 E. coli induced with IPTG to express double-stranded RNAi as described.
Compounds at 1,000× stock concentrations (0.1–10 mM) in DMSO or an equal volume of DMSO were diluted in a suspension of E. coli OP-50 (100 µl of a 3× concentrated overnight culture in LB broth) and absorbed as a single drop onto 3.5 cm plates containing 2.5 ml of NGM agar forming a well-defined lawn of bacteria. […] Pharyngeal pumping was counted by live observation at 115–200× magnification using a stereo microscope and recorded at 10 s intervals using a manually controlled digital cell counter. Alternatively, C. elegans pumping was recorded for longer intervals (30–60 s) using bright-field time-lapse microscopy at 120× magnification with a 20 images per second acquisition rate. The resulting movies were analyzed manually at a playback rate of 10 images per second.
Significance was determined by one-way ANOVA applying a Dunnett's posttest when comparing multiple treatments to a single control and a Bonferroni posttest when comparing the more than two treatments against one another. For pairwise nonrepeated measured comparisons, a student's t test was used. […]

[5] = target: tachykinin receptor-3 (Homo sapiens, UniProt P29371); test: Cell-based Ca flux assay (Multispan)
Description: (§3) Tachykinin, ghrelin, and calcium-sensing receptor activity were measured using a cell-based Ca flux assay by Multispan, Inc. (Hayward, California). Cholescystokinin A and B receptors were assayed for effects on cAMP production, and nicotinic acid receptor activity was measured in a cell-based assay of forskolin-stimulated cAMP production by Multispan, Inc. […], PP2A phosphatase activity assays were performed by CEREP (Celle l'Evescault, France) using PP2A from human erythrocytes. Phospholipase C from Bacillus cereus was assayed by CEREP, Inc. using glycero-phosphatidyl ethanolamine as a substrate, monitoring diacyl glycerol production. Radioligand binding assays for PPAR-α, γ, δ and the androgen receptor were performed by CEREP, Inc. CARNA Biosciences (Kobe, Japan) performed in vitro kinase activity assays using recombinant catalytic domains and measured phosphorylation of an Src-derived peptide for Flt-3 and phosphatidyl inositol for PI3KCA. Radioligand binding assays for the oxytocin receptor, D4 dopamine receptor, cannabinoid CB2 receptor, and angiotensin type I and II receptors were performed as described previously, as were cell-based activity assays for mGluR 1a, 2, 4, 5, 6, and 8 [60]–[62].

[6] = target: tachykinin receptor-2 (Homo sapiens, UniProt P21452); test: Cell-based Ca flux assay (Multispan)
Description: as §3

[7] = target: tachykinin receptor-1 (Homo sapiens, UniProt P25103); test: Cell-based Ca flux assay, cells stimulated by neurokinin-1 peptide (Multispan); settings: marked with footnote d in Figure 2
Description: as §3
Supplementary file pbio.1001712.s001.tif: Figure S1 Dose-response measurements that validate SEA predictions for GPCRs. […]

[8] = tested on: ver-3(ok891) mutant C. elegans; test: Pharyngeal pumping assay, compound on high-feeding mutant; type: in vivo; settings: percentage of the mutant's pumping rate on DMSO; 10 µM B16, D20, K9, F15, H6; 200 nM L-371257, SB 222200; 2 µM MMPIP, 5-flurox
Description: as §1, §2
(§4) The pumping rates are expressed as a percentage of the mutant’s pumping rate on DMSO, the vehicle control. p-values were calculated relative to DMSO treatment of each mutant by one-way ANOVA using Dunnett’s multiple comparison test.

[9] = tested on: ver-2(ok897) mutant C. elegans; test: as above; type: in vivo; settings: percentage of the mutant's pumping rate on DMSO; 10 µM B16, D20, K9, F15, H6; 200 nM L-371257, SB 222200; 2 µM MMPIP, 5-flurox
Description: as §1, §2, §4

[10] = tested on: gnrr-1(ok238) mutant C. elegans; test: as above; type: in vivo; settings: percentage of the mutant's pumping rate on DMSO; 10 µM B16, D20, K9, F15, H6; 200 nM L-371257, SB 222200; 2 µM MMPIP, 5-flurox
Description: as §1, §2, §4

[11] = tested on: mgl-2(tm355) mutant C. elegans; test: as above; type: in vivo; settings: percentage of the mutant's pumping rate on DMSO; 10 µM B16, D20, K9, F15, H6; 200 nM L-371257, SB 222200; 2 µM MMPIP, 5-flurox
Description: as §1, §2, §4

[12] = tested on: gnrr-3(tm4152) mutant C. elegans; test: as above; type: in vivo; settings: percentage of the mutant's pumping rate on DMSO; 10 µM B16, D20, K9, F15, H6; 200 nM L-371257, SB 222200; 2 µM MMPIP, 5-flurox
Description: as §1, §2, §4

[13] = target: Oxtr; set-up: method as in PMID 7473590; settings: cited from earlier work

tachykinin receptor-1, sequence (P25103 whole entry): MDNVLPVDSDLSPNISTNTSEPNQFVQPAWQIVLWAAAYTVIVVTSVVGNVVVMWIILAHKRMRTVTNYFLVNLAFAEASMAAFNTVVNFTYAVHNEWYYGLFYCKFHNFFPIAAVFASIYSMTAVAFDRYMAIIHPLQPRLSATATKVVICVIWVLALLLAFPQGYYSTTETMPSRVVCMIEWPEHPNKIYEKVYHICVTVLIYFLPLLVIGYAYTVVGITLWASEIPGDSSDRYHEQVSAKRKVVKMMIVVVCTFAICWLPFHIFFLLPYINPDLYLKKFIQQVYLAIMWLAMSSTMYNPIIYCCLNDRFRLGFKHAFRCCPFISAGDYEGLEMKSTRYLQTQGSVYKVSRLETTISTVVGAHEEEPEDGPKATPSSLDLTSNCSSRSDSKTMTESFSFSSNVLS
tachykinin receptor-2, sequence (P21452 whole entry): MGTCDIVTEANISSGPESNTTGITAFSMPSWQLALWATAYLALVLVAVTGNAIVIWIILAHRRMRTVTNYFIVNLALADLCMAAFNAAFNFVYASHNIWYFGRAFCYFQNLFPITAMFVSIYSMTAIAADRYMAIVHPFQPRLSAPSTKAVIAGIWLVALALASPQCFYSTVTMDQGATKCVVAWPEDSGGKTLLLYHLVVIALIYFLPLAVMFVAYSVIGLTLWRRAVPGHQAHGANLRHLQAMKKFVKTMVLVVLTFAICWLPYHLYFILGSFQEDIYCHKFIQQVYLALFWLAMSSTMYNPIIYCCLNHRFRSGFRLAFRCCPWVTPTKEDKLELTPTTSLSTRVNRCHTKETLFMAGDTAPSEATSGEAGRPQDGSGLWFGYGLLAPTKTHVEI
tachykinin receptor-3, sequence (P29371 whole entry): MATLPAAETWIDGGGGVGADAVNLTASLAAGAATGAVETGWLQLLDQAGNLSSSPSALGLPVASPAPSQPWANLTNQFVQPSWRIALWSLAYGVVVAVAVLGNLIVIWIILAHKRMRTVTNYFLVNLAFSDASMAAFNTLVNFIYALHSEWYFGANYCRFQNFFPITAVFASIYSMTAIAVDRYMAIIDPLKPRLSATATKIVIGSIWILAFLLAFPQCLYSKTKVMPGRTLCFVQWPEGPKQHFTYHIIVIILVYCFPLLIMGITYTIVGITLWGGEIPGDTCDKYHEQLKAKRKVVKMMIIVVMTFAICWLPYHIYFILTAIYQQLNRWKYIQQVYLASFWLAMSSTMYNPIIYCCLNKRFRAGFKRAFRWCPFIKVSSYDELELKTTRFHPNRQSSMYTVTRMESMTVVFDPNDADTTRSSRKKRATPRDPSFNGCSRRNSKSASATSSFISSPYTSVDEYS

SMILES	EC50 [1]	IC50 [2]	Nile Red staining [3]	Pharmacological relationship ([4]; to C. elegans tkr-1 (C38C10.1), homolog of human Tkr-1)	Ki [5]	Ki [6]	increase in pharyngeal pumping ([1]; 10 µM, cultured 3 d from L1, long-term video (60 s) and short-term manual (10 s) measurements)	exposure time after which the feeding elevating effect was notable ([1]; 10 µM, naïve day 1 gravid adults)	effect on the pharyngeal pumping rate ([1]; wild-type, 10 µM versus 0.1% DMSO)	Ki [7]	pharyngeal pumping rate, mean ([4]; percentage of the pumping rate of tkr-1(RNAi) animals on DMSO, 10 µM B16, D20, K9, F15, H6, 200 nM L-371257, SB 222200, 2 µM MMPIP, 5-flurox)	pharyngeal pumping rate, mean [8]	pharyngeal pumping rate, mean [9]	pharyngeal pumping rate, mean [10]	pharyngeal pumping rate, mean [11]	pharyngeal pumping rate, mean [12]	Ki [13]
O=C1Nc2ccc(F)cc2/C1=C1/Nc2ccccc2C1=NO [5-flurox, 5′-fluoroindirubinoxime, reference compound]	0.04 µM	0.015 µM	–	–	–	–	–	–	–	–	–	–	–	–	–	–	–
COc1ccc(OC)c(-c2cc(NC(=O)c3ccccc3C(N)=O)c3ccccc3n2)c1 [H6]	–	–	increased	antagonist	> 10 µM	> 10 µM	7%–12%	~16 h	increased	1.9 µM	–	–	–	–	–	–	–
COc1cc(OC2CCN(C(C)=O)CC2)ccc1C(=O)N1CCC(N2C(=O)OCc3ccccc32)CC1 [L-371257, 1-(1-[4-[(N-acetyl-4-piperidinyl)oxy]-2-methoxybenzoyl]piperidin-4-yl)-4H-3,1-benzoxazin-2(1H)-one, reference compound]	0.01 µM	–	–	–	–	–	–	–	–	–	109.9%	94.8%	100.8%	99.2%	105.0%	108.5%	0.0046 µM
